These results are taken from ChEMBL document CHEMBL3600368, “Novel broad-spectrum inhibitors of bacterial methionine aminopeptidase” (Bioorg Med Chem Lett, 2015).

Data set [1] in a line: Inhibition of Haemophilus influenzae methionine aminopeptidase.
The nature of data set [2]: Inhibition of Escherichia coli methionine aminopeptidase.
Data set [3] in a line: Inhibition of Streptococcus pneumoniae methionine aminopeptidase.
A short description of data set [4]: Solubility of the compound. Type of data set: physicochemical.
A short description of data set [5]: Intrinsic clearance in rat liver microsomes. In kind it is ADME. The following applies: read-out: CLH.
Data set [6] can be described thus: Lipophilicity, log D of the compound. Type of data set: physicochemical. As to conditions: octanol/water.
The nature of data set [7]: Unbound fraction in plasma (unknown origin). Type of data set: ADME, cell-free.
Data set [8] is described as follows: Inhibition of Staphylococcus aureus methionine aminopeptidase.

Converted amounts (≈) assume the structure as drawn. Residues, ends and D or L forms follow the SMILES beside them. *: point of attachment. Cbz = O=C(OCc1ccccc1)* Some results are limits rather than exact numbers.

For orientation: IC50 means the point on the concentration scale where inhibition reaches its midpoint. The low end stands for higher potency, the high end for lower potency. In the case of `C[C@@H](C(=O)N[C@H]1CC=C[C@H](c2ccccc2)N(C)C1=O)N(C)C(=O)OCc1ccccc1`, the IC50 in data set [1], in data set [2] and in data set [3] was greater than 200 µM in each case.
A word on the solubility: it is the concentration that dissolves in the medium under given conditions. Higher therefore signals a readily soluble substance. What is called logD is lipophilicity at a set pH, counting ionised and neutral species. Low values mean lower lipophilicity, high ones higher lipophilicity. For orientation: fraction unbound means the share of the substance not bound to proteins or other matrix. A low value points to little free substance. As for `C[C@H](NC(=O)[C@@H](N)c1ccccc1)C(=O)N[C@H]1CC=C[C@H](C2CCCCC2)N(C)C1=O`, in data set [4], the solubility was greater than 1000 µM. The microsomal CLint in data set [5] turned out to be 93.5 µL/min/mg. The same molecule gave a logD in data set [6] of 1.98. In data set [7], this molecule returned a fraction unbound of 0.108. The IC50 stood at 6.7 µM in data set [1], 1.4 µM in data set [2] and 0.12 µM in data set [3].
For `C[C@H](N)C(=O)N[C@@H](C)C(=O)N[C@H]1CC=C[C@H](C2CCCCC2)N(C)C1=O`, the IC50 in data set [1], in data set [2] and in data set [3] was greater than 200 µM in each case.
`C[C@H](NC(=O)[C@@H](N)Cc1ccccc1)C(=O)N[C@H]1CC=C[C@H](C2CCCCC2)N(C)C1=O` yielded a solubility in data set [4] greater than 1000 µM. Further, in data set [5], the microsomal CLint worked out at 689 µL/min/mg. The molecule also had a logD in data set [6] of 2.2. Also, the fraction unbound in data set [7] is 0.109. Besides, the IC50 is 4.7 µM in data set [1], 2.2 µM in data set [2] and 9.7 µM in data set [3].
In the case of `C[C@H](NC(=O)[C@@H](N)c1cccc(Cl)c1)C(=O)N[C@H]1CC=C[C@H](C2CCCCC2)N(C)C1=O`, in data set [4], the concentration in solution (solubility) came to 888 µM (≈ 409 µg/mL). Moreover, the microsomal CLint in data set [5] came to 159 µL/min/mg. In data set [6], the logD was found to be 2.69. Further, the fraction unbound in data set [7] is 0.016. The IC50 came to 1.1 µM in data set [1], 0.8 µM in data set [2] and 0.3 µM in data set [3].
In the case of `C[C@H](NC(=O)Cc1cc(F)cc(F)c1)C(=O)N[C@H]1CC=C[C@H](c2ccccc2)N(C)C1=O`, the solubility in data set [4] turned out to be 450 µM (≈ 199 µg/mL). The microsomal CLint in data set [5] was 339 µL/min/mg. Also, in data set [6], the logD amounted to 2.6. In data set [7], this molecule gave a fraction unbound of 0.051. The IC50 is 60 µM in data set [1], 30 µM in data set [2], greater than 200 µM in data set [8] and 46 µM in data set [3].
In data set [4], `C[C@H](NC(=O)OCc1ccccc1)C(=O)N[C@H]1CC=C[C@H](c2ccccc2)N(C)C1=O` yielded a solubility of 341 µM (≈ 144 µg/mL). Also, the microsomal CLint in data set [5] was 720 µL/min/mg. The logD in data set [6] was 1.65. In data set [7], this molecule had a fraction unbound of 0.027. Also, the IC50 came out at 11.3 µM in data set [1], 8.1 µM in data set [2] and 7.4 µM in data set [3].
On to `C[C@H](NC(=O)[C@H](N)c1ccccc1)C(=O)N[C@H]1CC=C[C@H](C2CCCCC2)N(C)C1=O`, for which the IC50 amounted to 15.6 µM in data set [1], 8 µM in data set [2] and 4 µM in data set [3].
Turning to `C[C@H](NC(=O)[C@H](C)NC(=O)OCc1ccccc1)C(N)=O` (Cbz-Ala-Ala-NH2), the IC50 in data set [1], in data set [2] and in data set [3] was greater than 200 µM each time.
As to `CC(C)[C@H](NC(=O)OCc1ccccc1)C(=O)N[C@H]1CC=C[C@H](c2ccccc2)N(C)C1=O`, the IC50 in data set [1], in data set [2] and in data set [3] was greater than 200 µM each time.
For the molecule `C[C@H](NC(=O)OCc1ccccc1)C(=O)N[C@H]1CC=C[C@@H](c2ccccc2)N(C)C1=O`, the IC50 in data set [1], in data set [2] and in data set [3] was greater than 200 µM throughout.
For `CN1C(=O)[C@@H](NC(=O)[C@H](CO)NC(=O)OCc2ccccc2)CC=C[C@@H]1c1ccccc1`, the IC50 in data set [1] stood at 132 µM; in data set [2], 102 µM; in data set [3] it was 71.4 µM.
Turning to `CC(=O)N[C@@H](C)C(=O)N[C@H]1CC=C[C@H](c2ccccc2)N(C)C1=O`, the IC50 in data set [1], in data set [2] and in data set [3] was greater than 200 µM throughout.
For the molecule `CN1C(=O)[C@@H](NC(=O)C(C)(C)NC(=O)OCc2ccccc2)CC=C[C@@H]1c1ccccc1`, the IC50 in data set [1], in data set [2] and in data set [3] was greater than 200 µM each time.
